Test [1] can be described thus: Inhibition of Trypanosoma brucei trypanothione synthase.
Test [2] relates to Trypanosoma brucei. Briefly: Inhibition of wild type blood stream form of Trypanosoma brucei expressing trypanothione synthase after 72 hrs. It counts as functional, organism-based.
In test [3] the test system is Trypanosoma brucei. Briefly: Inhibition of blood stream form of Trypanosoma brucei overexpressing trypanothione synthase after 72 hrs. The class given is functional, organism-based.
The subject of test [4] is Trypanosoma brucei. Briefly: Inhibition of blood stream form of trypanothione synthase single knockout Trypanosoma brucei after 72 hrs. The class given is functional, organism-based.
A short description of test [5]: Inhibition of Leishmania mexicana CRK3/CYC6.
For the next test, the target named is CDK2/Cyclin A2 (Homo sapiens, UniProt P24941). Briefly: Inhibition of human CDK2/Cyclin A. It counts as protein-complex assay.
Test [6] in a line: Inhibition of Trypanosoma brucei PTR1 by spectrophotometry. The settings on record: read-out: Ki(app).

The IC50 is the midpoint of a concentration-inhibition curve. By EC50 is commonly meant the concentration needed to bring the measured effect to its halfway point. Lower therefore signals higher potency in that assay. Consider `CN(C)CCCNC(=O)Cn1nc(-c2cccc(F)c2)c2ccccc21`, for which the IC50 in test [1] was determined as 0.045 µM. For the same compound, the results for the EC50 with Trypanosoma brucei [2], in the test on Trypanosoma brucei [3] and with Trypanosoma brucei [4] were 7 µM, 23 µM and 1.2 µM, respectively.

For `O=C(Nc1cc(-c2ccc(Cl)cc2)n[nH]1)C1CCCCC1`, the IC50 in test [5] was 0.34 µM; on CDK2/Cyclin A2, above 100 µM.

For `Cc1cccc(-c2ccc3nc(NC(=O)CCC4CCCC4)nn3c2)c1`, the IC50 in test [5] is below 0.005 µM; on CDK2/Cyclin A2 it was above 100 µM.

Take `COc1cccc(NC(=O)NC2=CC(=O)CC(C)(C)C2)c1`: the results for the IC50 (in test [5]; at CDK2/Cyclin A2) were 0.04 µM and above 100 µM, respectively.

`Nc1nc2ccc(Cl)cc2[nH]1`: the Ki in test [6] is 11 µM.

For the compound `Nc1nc2ccccc2[nH]1`, the Ki in test [6] stood at 228 µM.

The record behind these values is ChEMBL document CHEMBL2429771, “Drug discovery for neglected diseases: molecular target-based and phenotypic approaches” (J Med Chem, 2013).
